{"source": "ChEMBL document CHEMBL1152385", "about": "“Cyanoguanidine-based lactam derivatives as a novel class of orally bioavailable factor Xa inhibitors” (Bioorg Med Chem Lett, 2009)", "key": {"[1]": {"tested_on": "Rattus norvegicus", "assay": "Antithrombotic activity in pentobarbital-anesthetized Sprague-Dawley rat assessed reduction in occlusion of arteries administered as initial 20 mg/kg, iv bolus dose followed by sustaining 20 mg/kg/h, iv dosing", "assay_type": "functional, organism-based"}, "[2]": {"species": "Rattus norvegicus", "assay": "animal or person", "details": "Sprague-Dawley, Vena cava, iv"}, "[3]": {"molecular_target": "Glucocorticoid receptor (Homo sapiens) (UniProt P04150)", "assay": "Inhibition of human glucocorticoid receptor at 10 uM"}, "[4]": {"molecular_target": "D(2) dopamine receptor (Homo sapiens) (UniProt P14416)", "assay": "Inhibition of human dopamine D2S receptor at 10 uM"}, "[5]": {"species": "Rattus norvegicus", "assay": "Inhibition of rat central-type benzodiazepine receptor at 10 uM"}, "[6]": {"species": "Rattus norvegicus", "assay": "Inhibition of rat PCP receptor at 10 uM"}, "[7]": {"molecular_target": "Sodium-dependent dopamine transporter (Rattus norvegicus) (UniProt P23977)", "sequence (P23977 whole entry)": "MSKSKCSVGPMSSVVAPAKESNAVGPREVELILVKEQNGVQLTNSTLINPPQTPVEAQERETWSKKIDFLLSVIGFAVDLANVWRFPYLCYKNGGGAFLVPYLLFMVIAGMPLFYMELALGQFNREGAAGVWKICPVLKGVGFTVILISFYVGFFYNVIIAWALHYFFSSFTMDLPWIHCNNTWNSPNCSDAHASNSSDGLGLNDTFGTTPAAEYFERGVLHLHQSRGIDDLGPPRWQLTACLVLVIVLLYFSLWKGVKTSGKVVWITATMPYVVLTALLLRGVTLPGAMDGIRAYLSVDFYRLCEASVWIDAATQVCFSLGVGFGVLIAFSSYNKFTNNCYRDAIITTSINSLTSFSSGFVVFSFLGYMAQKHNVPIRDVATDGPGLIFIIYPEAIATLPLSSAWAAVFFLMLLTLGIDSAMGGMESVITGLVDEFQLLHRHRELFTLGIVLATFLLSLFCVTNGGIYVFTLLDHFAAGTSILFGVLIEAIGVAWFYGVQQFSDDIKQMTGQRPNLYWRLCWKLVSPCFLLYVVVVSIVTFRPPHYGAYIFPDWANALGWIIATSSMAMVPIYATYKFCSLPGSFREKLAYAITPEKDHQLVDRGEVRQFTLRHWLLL", "assay": "Inhibition of rat dopamine transporter at 10 uM"}, "[8]": {"species": "Rattus norvegicus", "assay": "animal or person", "details": "Sprague-Dawley, iv"}, "[9]": {"species": "Rattus norvegicus", "assay": "Inhibition of rat AMPA receptor at 10 uM"}, "[10]": {"molecular_target": "Sodium-dependent noradrenaline transporter (Homo sapiens) (UniProt P23975)", "sequence (P23975 whole entry)": "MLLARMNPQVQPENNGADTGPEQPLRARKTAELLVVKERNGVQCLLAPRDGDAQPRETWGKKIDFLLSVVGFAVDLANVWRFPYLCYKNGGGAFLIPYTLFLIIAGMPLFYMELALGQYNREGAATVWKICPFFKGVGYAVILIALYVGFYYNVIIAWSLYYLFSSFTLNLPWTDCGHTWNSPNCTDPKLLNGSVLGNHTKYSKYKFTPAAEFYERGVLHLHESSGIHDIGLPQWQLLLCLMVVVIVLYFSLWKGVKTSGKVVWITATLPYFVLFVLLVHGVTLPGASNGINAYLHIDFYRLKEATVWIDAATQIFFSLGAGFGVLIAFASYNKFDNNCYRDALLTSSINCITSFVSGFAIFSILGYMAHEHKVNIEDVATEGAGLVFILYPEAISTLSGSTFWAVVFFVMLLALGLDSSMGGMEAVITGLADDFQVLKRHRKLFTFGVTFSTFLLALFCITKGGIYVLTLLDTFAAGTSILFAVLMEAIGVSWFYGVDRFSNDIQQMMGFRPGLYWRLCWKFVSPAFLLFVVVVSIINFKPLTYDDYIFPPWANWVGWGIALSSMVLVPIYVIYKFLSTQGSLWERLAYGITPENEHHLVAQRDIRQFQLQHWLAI", "assay": "Inhibition of human norepinephrine transporter at 10 uM"}, "[11]": {"molecular_target": "Adrenergic receptor alpha-2 (Rattus norvegicus) (UniProt P22086+P19328+P22909)", "assay": "Inhibition of rat adrenergic alpha2 receptor at 10 uM"}, "[12]": {"species": "Rattus norvegicus", "assay": "Inhibition of rat sodium channel site 2 at 10 uM"}, "[13]": {"molecular_target": "Histamine H2 receptor (Cavia porcellus) (UniProt P47747)", "assay": "Inhibition of guinea pig histamine H2 receptor at 10 uM"}, "[14]": {"species": "Rattus norvegicus", "assay": "Inhibition of rat choline transporter at 10 uM"}, "[15]": {"molecular_target": "5-hydroxytryptamine receptor 2B (Homo sapiens) (UniProt P41595)", "sequence (P41595 whole entry)": "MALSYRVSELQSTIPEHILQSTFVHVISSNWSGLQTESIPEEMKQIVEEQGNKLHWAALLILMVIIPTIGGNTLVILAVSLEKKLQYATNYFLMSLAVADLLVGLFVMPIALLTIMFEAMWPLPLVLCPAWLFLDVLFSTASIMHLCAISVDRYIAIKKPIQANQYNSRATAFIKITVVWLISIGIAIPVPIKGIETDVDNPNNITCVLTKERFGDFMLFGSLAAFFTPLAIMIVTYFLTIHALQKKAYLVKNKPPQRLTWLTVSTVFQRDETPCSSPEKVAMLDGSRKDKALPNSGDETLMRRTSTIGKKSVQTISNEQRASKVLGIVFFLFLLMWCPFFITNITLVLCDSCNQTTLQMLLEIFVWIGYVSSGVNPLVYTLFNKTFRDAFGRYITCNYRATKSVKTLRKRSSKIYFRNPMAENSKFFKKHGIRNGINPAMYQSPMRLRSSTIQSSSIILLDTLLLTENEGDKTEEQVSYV", "assay": "Inhibition of human 5HT2B receptor at 10 uM"}, "[16]": {"molecular_target": "Histamine H1 receptor (Cavia porcellus) (UniProt P31389)", "sequence (P31389 whole entry)": "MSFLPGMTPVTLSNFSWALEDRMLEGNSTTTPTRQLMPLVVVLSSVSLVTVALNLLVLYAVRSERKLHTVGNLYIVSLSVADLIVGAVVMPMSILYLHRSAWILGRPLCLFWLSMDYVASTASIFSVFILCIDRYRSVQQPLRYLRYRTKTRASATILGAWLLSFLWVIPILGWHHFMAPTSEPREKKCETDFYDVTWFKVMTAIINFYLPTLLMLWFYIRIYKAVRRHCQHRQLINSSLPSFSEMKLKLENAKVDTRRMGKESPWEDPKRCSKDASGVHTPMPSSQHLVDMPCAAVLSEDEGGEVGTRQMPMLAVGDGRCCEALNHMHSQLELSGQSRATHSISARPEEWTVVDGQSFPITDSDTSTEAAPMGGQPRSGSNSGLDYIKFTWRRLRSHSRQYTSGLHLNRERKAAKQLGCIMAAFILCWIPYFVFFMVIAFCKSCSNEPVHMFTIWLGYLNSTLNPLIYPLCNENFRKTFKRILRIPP", "assay": "Inhibition of guinea pig histamine H1 receptor at 10 uM"}, "[17]": {"molecular_target": "Estrogen receptor (Homo sapiens) (UniProt P03372)", "sequence (P03372 whole entry)": "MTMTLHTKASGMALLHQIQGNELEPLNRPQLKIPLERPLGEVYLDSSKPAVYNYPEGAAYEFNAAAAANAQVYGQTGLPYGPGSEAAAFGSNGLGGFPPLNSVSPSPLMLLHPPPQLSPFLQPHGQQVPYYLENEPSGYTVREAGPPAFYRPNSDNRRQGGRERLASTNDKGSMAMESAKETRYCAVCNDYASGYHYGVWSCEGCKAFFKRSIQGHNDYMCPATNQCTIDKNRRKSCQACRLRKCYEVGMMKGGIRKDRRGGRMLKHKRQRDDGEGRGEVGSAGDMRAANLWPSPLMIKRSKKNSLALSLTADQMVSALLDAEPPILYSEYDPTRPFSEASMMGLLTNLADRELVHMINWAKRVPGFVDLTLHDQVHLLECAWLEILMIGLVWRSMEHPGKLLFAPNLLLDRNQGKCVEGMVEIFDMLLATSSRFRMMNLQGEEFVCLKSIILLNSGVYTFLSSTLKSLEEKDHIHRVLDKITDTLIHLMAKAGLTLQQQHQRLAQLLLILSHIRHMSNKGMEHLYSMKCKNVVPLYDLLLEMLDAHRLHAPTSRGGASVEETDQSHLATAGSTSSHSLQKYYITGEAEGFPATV", "assay": "Inhibition of human ERalpha receptor at 10 uM"}, "[18]": {"species": "Mus musculus", "assay": "Inhibition of mouse rolipram binding site at 10 uM"}, "[19]": {"assay": "Inhibition of tryptase"}, "[20]": {"molecular_target": "Beta-2 adrenergic receptor (Homo sapiens) (UniProt P07550)", "assay": "Inhibition of human adrenergic beta2 receptor at 10 uM"}, "[21]": {"assay": "cells", "details": "Homo sapiens, TC5"}, "[22]": {"molecular_target": "Cholecystokinin receptor type A (Homo sapiens) (UniProt P32238)", "sequence (P32238 whole entry)": "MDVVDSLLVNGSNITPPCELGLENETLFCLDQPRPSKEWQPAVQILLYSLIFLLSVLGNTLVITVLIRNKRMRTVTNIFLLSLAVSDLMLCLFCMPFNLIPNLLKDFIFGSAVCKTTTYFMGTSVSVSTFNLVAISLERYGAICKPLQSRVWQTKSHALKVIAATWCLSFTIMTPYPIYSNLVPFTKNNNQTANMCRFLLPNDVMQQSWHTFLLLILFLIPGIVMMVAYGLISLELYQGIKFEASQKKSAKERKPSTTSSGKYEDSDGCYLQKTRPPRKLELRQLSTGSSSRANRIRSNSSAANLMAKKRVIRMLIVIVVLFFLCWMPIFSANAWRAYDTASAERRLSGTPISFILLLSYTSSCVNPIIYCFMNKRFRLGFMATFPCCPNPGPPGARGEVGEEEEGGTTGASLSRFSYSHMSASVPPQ", "assay": "Inhibition of human CCK1 receptor at 10 uM"}, "[23]": {"molecular_target": "Adenosine receptor A1 (Homo sapiens) (UniProt P30542)", "sequence (P30542 whole entry)": "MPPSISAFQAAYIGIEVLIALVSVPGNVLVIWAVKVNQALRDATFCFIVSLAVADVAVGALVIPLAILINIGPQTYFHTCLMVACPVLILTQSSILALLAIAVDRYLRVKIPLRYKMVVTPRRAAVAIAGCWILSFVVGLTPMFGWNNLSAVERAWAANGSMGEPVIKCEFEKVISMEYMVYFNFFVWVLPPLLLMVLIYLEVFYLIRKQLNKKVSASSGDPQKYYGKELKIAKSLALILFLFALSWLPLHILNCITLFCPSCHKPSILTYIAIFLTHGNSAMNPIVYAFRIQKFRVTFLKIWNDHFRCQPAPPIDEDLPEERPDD", "assay": "Inhibition of human adenosine A1 receptor at 10 uM"}, "[24]": {"molecular_target": "Muscarinic acetylcholine receptor (Rattus norvegicus) (UniProt P08482+P08483+P08485+P08911+P10980)", "assay": "Inhibition of rat muscarinic receptor at 10 uM"}, "[25]": {"molecular_target": "D(1A) dopamine receptor (Homo sapiens) (UniProt P21728)", "sequence (P21728 whole entry)": "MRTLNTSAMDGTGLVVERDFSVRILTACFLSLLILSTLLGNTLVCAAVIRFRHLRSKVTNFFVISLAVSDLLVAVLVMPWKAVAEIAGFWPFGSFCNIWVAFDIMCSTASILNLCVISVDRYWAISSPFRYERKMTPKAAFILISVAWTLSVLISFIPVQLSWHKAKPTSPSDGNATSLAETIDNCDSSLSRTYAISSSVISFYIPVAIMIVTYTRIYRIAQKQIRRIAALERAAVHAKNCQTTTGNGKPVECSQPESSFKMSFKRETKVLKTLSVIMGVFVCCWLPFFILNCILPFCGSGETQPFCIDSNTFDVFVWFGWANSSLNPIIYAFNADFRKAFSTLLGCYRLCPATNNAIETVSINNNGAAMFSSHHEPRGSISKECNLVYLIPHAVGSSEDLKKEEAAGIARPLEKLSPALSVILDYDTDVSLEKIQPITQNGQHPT", "assay": "Inhibition of human dopamine D1 receptor at 10 uM"}, "[26]": {"species": "Rattus norvegicus", "assay": "Inhibition of rat 5-HT receptor at 10 uM"}, "[27]": {"species": "Rattus norvegicus", "assay": "Inhibition of rat opioid receptor at 10 uM"}, "[28]": {"molecular_target": "Beta-1 adrenergic receptor (Homo sapiens) (UniProt P08588)", "sequence (P08588 whole entry, looked up)": "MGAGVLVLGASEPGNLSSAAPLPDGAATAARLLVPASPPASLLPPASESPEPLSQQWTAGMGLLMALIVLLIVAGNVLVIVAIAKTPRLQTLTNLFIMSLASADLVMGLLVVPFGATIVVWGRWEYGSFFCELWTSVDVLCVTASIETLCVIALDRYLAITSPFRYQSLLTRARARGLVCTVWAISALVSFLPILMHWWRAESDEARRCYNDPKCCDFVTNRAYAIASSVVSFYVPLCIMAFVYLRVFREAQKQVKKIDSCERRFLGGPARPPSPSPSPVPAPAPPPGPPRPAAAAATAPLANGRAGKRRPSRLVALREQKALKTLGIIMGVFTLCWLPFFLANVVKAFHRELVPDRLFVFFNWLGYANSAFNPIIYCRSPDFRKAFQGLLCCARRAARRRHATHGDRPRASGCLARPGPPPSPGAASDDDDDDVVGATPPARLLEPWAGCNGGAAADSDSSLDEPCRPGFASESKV", "assay": "Inhibition of human adrenergic beta-1 receptor at 10 uM"}, "[29]": {"assay": "Inhibition of sst receptor at 10 uM"}, "[30]": {"molecular_target": "5-hydroxytryptamine receptor 1A (Homo sapiens) (UniProt P08908)", "sequence (P08908 whole entry)": "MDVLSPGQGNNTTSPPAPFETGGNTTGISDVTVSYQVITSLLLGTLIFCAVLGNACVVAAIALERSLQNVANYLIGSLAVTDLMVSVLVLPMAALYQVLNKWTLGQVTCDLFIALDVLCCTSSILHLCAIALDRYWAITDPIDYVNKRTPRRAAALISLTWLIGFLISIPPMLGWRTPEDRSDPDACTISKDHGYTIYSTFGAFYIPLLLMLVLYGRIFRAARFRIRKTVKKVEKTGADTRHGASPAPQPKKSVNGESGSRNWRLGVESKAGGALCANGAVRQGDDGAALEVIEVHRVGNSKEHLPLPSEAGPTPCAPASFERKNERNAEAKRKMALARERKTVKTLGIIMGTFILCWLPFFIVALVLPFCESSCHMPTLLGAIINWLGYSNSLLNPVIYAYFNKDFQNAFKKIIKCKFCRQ", "assay": "Inhibition of human 5HT1A receptor at 10 uM"}, "[31]": {"molecular_target": "Progesterone receptor (Homo sapiens) (UniProt P06401)", "assay": "Inhibition of human progesterone receptor at 10 uM"}, "[32]": {"assay": "Inhibition of sodium channel"}, "[33]": {"species": "Rattus norvegicus", "assay": "Inhibition of rat GABA transporter at 10 uM"}, "[34]": {"tested_on": "Rattus norvegicus", "assay": "Antithrombotic activity in pentobarbital-anesthetized Sprague-Dawley rat assessed as improved blood flow in arterial thrombosis administered as initial bolus iv dosing plus sustaining iv infusion", "assay_type": "functional, organism-based"}, "[35]": {"molecular_target": "Glutamate NMDA receptor (Rattus norvegicus) (UniProt P35439+Q00959+Q00960+Q00961+Q62645+Q8VHN2+Q9R1M7)", "assay": "Inhibition of rat NMDA receptor at 10 uM", "assay_type": "protein-complex assay"}, "[36]": {"assay": "Inhibition of trypsin"}, "[37]": {"species": "Rattus norvegicus", "assay": "Inhibition of rat chloride channel at 10 uM"}, "[38]": {"species": "Rattus norvegicus", "assay": "Inhibition of rat kainate receptor at 10 uM"}, "[39]": {"tested_on": "Plasma"}, "[40]": {"molecular_target": "Adrenergic receptor alpha-1 (Rattus norvegicus) (UniProt P15823+P23944+P43140)", "assay": "Inhibition of rat adrenergic alpha1 receptor at 10 uM"}, "[41]": {"tested_on": "Rattus norvegicus", "assay": "Ex vivo anticoagulant activity in pentobarbital-anesthetized Sprague-Dawley rat assessed as prolongation of prothrombin time administered as initial bolus iv dosing followed by sustaining iv infusion", "assay_type": "functional, organism-based"}}, "note": "Activity calls are given as the source filed them. The rule behind the calls is not given here.", "data": [{"smiles": "Cc1cc2cc(/N=C(/NC#N)N[C@H]3CCCCN(CC(=O)N4CCCC4)C3=O)ccc2o1", "values": [{"measurement": "Activity", "setting": "[1]", "result": "Active"}, {"measurement": "ED50", "setting": "[2]", "result": 6, "unit": "mg/kg"}, {"measurement": "inhibition", "setting": "[3]", "result": "inactive"}, {"measurement": "inhibition", "setting": "[4]", "result": "inactive"}, {"measurement": "inhibition", "setting": "[5]", "result": "inactive"}, {"measurement": "inhibition", "setting": "[6]", "result": "inactive"}, {"measurement": "inhibition", "setting": "[7]", "result": "inactive"}, {"measurement": "ED50", "setting": "[8]", "result": 25, "unit": "mg/kg"}, {"measurement": "inhibition", "setting": "[9]", "result": "inactive"}, {"measurement": "inhibition", "setting": "[10]", "result": "inactive"}, {"measurement": "inhibition", "setting": "[11]", "result": "inactive"}, {"measurement": "inhibition", "setting": "[12]", "result": "inactive"}, {"measurement": "inhibition", "setting": "[13]", "result": "inactive"}, {"measurement": "inhibition", "setting": "[14]", "result": "inactive"}, {"measurement": "inhibition", "setting": "[15]", "result": "inactive"}, {"measurement": "inhibition", "setting": "[16]", "result": "inactive"}, {"measurement": "inhibition", "setting": "[17]", "result": "inactive"}, {"measurement": "inhibition", "setting": "[18]", "result": "inactive"}, {"measurement": "Ki", "setting": "[19]", "result": "> 16", "unit": "µM"}, {"measurement": "inhibition", "setting": "[20]", "result": "inactive"}, {"measurement": "IC50", "setting": "[21]", "result": "> 200", "unit": "µM"}, {"measurement": "inhibition", "setting": "[22]", "result": "inactive"}, {"measurement": "inhibition", "setting": "[23]", "result": "inactive"}, {"measurement": "inhibition", "setting": "[24]", "result": "inactive"}, {"measurement": "inhibition", "setting": "[25]", "result": "inactive"}, {"measurement": "inhibition", "setting": "[26]", "result": "inactive"}, {"measurement": "inhibition", "setting": "[27]", "result": "inactive"}, {"measurement": "inhibition", "setting": "[28]", "result": "inactive"}, {"measurement": "inhibition", "setting": "[29]", "result": "inactive"}, {"measurement": "inhibition", "setting": "[30]", "result": "inactive"}, {"measurement": "inhibition", "setting": "[31]", "result": "inactive"}, {"measurement": "inhibition", "setting": "[32]", "result": "inactive"}, {"measurement": "inhibition", "setting": "[33]", "result": "inactive"}, {"measurement": "Activity", "setting": "[34]", "result": "Active"}, {"measurement": "inhibition", "setting": "[35]", "result": "inactive"}, {"measurement": "Ki", "setting": "[36]", "result": "> 10", "unit": "µM"}, {"measurement": "inhibition", "setting": "[37]", "result": "inactive"}, {"measurement": "inhibition", "setting": "[38]", "result": "inactive"}, {"measurement": "EC", "setting": "[39]", "result": 30, "unit": "µM"}, {"measurement": "inhibition", "setting": "[40]", "result": "inactive"}, {"measurement": "Activity", "setting": "[41]", "result": "Dose-dependent effect"}]}]}
